Assays:
[1] = system: DTH reaction in Balb/c mice; experiment: Delayed type hypersensitivity (DTH) reaction, Tetanus Toxoid footpad swelling; assay type: in vivo; conditions: female Balb/c mice, sc. once daily day 1-11, Tetanus Toxoid immunization day 2, challenge day 9, footpad swelling
Method: In the delayed type hypersensitivity (DTH) procedure, the effect of a compound on the development of an immune reaction can be observed in mice (details in example 16). Briefly, the compound is administered daily and the animals are immunized subsequently with an antigen in adjuvant. After 7 days the animals are challenged locally by injecting the antigen locally (mostly in the foot) and measuring the subsequently developing local swelling in response to the deposition of the antigen. The degree of this swelling is related to the development of an immune response against the eliciting antigen. The inhibiting action of a compound of this invention on the development of this swelling can be determined, by comparing the treatment group with a placebo treated group. As a reference treatment, administration of glucocorticoids can be used.
Groups of eight female Balb/c (Harlan, Zeist, The Netherlands) mice were used, approximately 8 weeks of age at the start of the experiment. These mice were housed in Macrolon cages, under standard conditions and acclimatized for 3-5 days before the start of the experiment. The groups received either compound or placebo.
They were weighed on day 1 and on the last treatment day. Animals were treated once daily by subcutaneous (sc) injection in the back of the neck or by oral gavage from day 1 till day 11 with a test compound in concentration range from 1.2, 3, 4, 6, to 12 mg/kg. The injection volume was 0.1 mL of a vehicle for injection consisting of physiological saline containing 0.5% gelatin and 5% mannitol. A placebo treated group (vehicle only) and a group treated with 4 mg/kg dexamethasone as reference compound were included in each experiment.
On day 2, animals were immunized with 0.1 ml of a stable suspension of 3.75 Lf Tetanus Toxoid antigen (TT from the RIVM, Zeist, The Netherlands) in 1 mg/ml dimethyl dioctadecylammonium bromide (DDA) from Phase Sep, at 2 places on the breast intradermally.
On day 9 animals were challenged on the ventral side of the right [R] paw with 0.05 mL of a solution containing 50 Lf TT and 1 mg Al(OH)3 per mL. The left [L] footpad (control) received the vehiculum with Al(OH)3 only. After 24 and 48 hours, the left and right footpad thickness (parameters L and R, respectively) were measured with a calipers densitometer in mm and the percentage of antigen-specific footpad swelling was calculated according to the formula: [(R−L)/L]×100%. Results

| Structure (SMILES) | Amount of compound given sc. in mg/kg leading to 50% reduction of the DTH reaction as compared to placebo [1] [mg/kg] | melting point [°C] |
| --- | --- | --- |
| C#CC1(O)CCC2C3C(C)CC4=C(CCC(=C)C4)C3CCC21C (stereo not drawn) [example 1, (7α,17α)-7-methyl-3-methylene-19-norpregn-5(10)-en-20-yn-17-ol] | 1.9 to 3.4 |  |
| C=C1CCC2=C(C1)C[C@@H](C)[C@@H]1[C@@H]2CC[C@]2(C)[C@@H](O)CC[C@@H]12 [example 2, (7α,17β)-7-methyl-3-methyleneestr-5(10)-en-17-ol] | 20 | 111.8 |
| C#CC1(O)CCC2C3C(C)CC45CC(=C)CCC4(O5)C3CCC21C (stereo not drawn) [example 3, (5β,7α,17α)-5,10-epoxy-7-methyl-3-methylene-19-norpregn-20-yn-17-ol] | 11 |  |
| C=C1CC[C@@]23O[C@]2(C1)C[C@@H](C)[C@H]1[C@@H]2CC[C@H](O)[C@@]2(C)CC[C@@H]13 [example 4, (5β,7α,17β)-5,10-epoxy-7-methyl-3-methyleneestran-17-ol] | >20 | 125 |
| C=C[C@]1(O)CC[C@H]2[C@H]3[C@H](CC[C@@]21C)[C@H]1CCC(=C)C[C@@H]1C[C@H]3C [example 5, (5α,7α,17α)-7-methyl-3-methylene-19-norpregn-20-en-17-ol] | 10 |  |
| C=C1CC[C@H]2[C@@H](C1)C[C@@H](C)[C@@H]1[C@@H]2CC[C@@]2(C)[C@H]1CC[C@@]2(O)CC [example 7, (5β,7α,17α)-7-Methyl-3-methylene-19-norpregnan-17-ol] | 6 |  |
